Laboratory results from patent publication US20260224512A1, “USE OF 5-METHOXY-2-AMINOINDAN ("MEAI") IN METHODS FOR TREATING METABOLIC SYNDROME” (Clearmind Labs Corp., priority 2022, published 2026).

Assays:
DIO mouse model [1] = experiment: Blood biochemistry in DIO mice; assay type: in vivo; settings: 40 mg/kg/day
Method: (§1) Effect of MEAI on Obesity. Male C57BL/6 mice were used to establish DIO by feeding them a high-fat diet (HFD; 60% Kcal fat, 20% Kcal protein, and 20% Kcal carbohydrates; Research Diet, D12492) for 18 weeks. After this period, mice were treated with either vehicle (sterile water, N=8) or MEAI (N=11) daily for 28 days by gavage at a dose of 40 mg/kg/day. Age-matched control mice (N=10) on a standard diet (STD; 14% Kcal fat, 24% Kcal protein, 62% Kcal carbohydrates; NIH-31 rodent diet) and received vehicle daily. The body weight of all mice was monitored daily, and total body fat and lean mass were determined by EchoMRI-100H™ (Echo Medical Systems LLC, Houston, TX, USA). On Day 29, at the end of the experimental period, mice were euthanized by a cervical dislocation under anesthesia. The kidneys, brain, liver, and fat pads were removed and weighed, and samples were either snap-frozen or fixed in buffered 4% formalin. Trunk blood was collected to determine biochemical parameters.
Blood and urine biochemistry. Serum levels of alanine aminotransferase (ALT), aspartate aminotransferase (AST), alkaline phosphatase (ALP), cholesterol, triglycerides, high-density lipoprotein (HDL), and low-density lipoprotein (LDL) were determined by using the Cobas C-111 chemistry analyzer (Roche, Switzerland). Blood urea nitrogen (BUN) was calculated based on serum urea levels as follows: BUN (mg/dL)=Urea (mg/dL)/2.1428. Fasting blood glucose was measured using the Contour® glucometer (Bayer, Pittsburgh, PA). Serum insulin was determined using an Ultra-Sensitive Mouse Insulin ELISA kit (Crystal Chem, Inc., Elk Grove Village, IL, USA).

C57BL/6 mice [2] = experiment: Acute multi-parameter metabolic assessment (food and water intake, respirometry); assay type: in vivo
Method: (§2) Male 6-week-old C57BL/6 mice (Envigo, Israel) were maintained under a 12-h light/dark cycle and fed ad libitum. A total of 32 animals were divided into four experimental groups (N=8 mice per group) receiving single doses of 40, 60, or 100 mg/kg of MEAI or vehicle (sterile water), which was administered via oral gavage two hours prior to the dark phase. The animals were monitored for 48 hours post-dose for drug tolerability, food and water intakes as well as activity and metabolic parameters. At the end of the experiment, the animals were euthanized, and tissues (brain, liver, fat, and kidney) and blood were collected and stored frozen for future analyses. To generate diet-induced obesity, C57BI6/J mice were fed either a high-fat diet (HFD) (60% of calories from fat, 20% from protein, and 20% from carbohydrates; Research Diet, D12492) or a standard laboratory diet (STD, 14% fat, 24% protein, 62% carbohydrates; NIH-31 rodent diet) for 18 weeks.
(§3) Multi-parameter metabolic assessment. The metabolic profiles and food and water intakes of the mice were assessed by using the Promethion High-Definition Behavioral Phenotyping System (Sable Instruments, Inc., Las Vegas, NV, USA). Data acquisition and instrument control were performed using MetaScreen software version 2.2.18.0, and the obtained raw data were processed using ExpeData version 1.8.4 using an analysis script detailing all aspects of data transformation. Mice with free access to food and water were subjected to a standard 12 h light/12 h dark cycle, which consisted of a 48 h acclimation period followed by 24 h of sampling. Respiratory gases were measured by using the GA-3 gas analyzer (Sable Systems, Inc., Las Vegas, NV, USA) using a pull-mode, negative pressure system. Air flow was measured and controlled by FR-8 (Sable Systems, Inc., Las Vegas, NV, USA), with a set flow rate of 2000 mL/min. Water vapor was continuously measured and its dilution effect on O2 and CO2 was mathematically compensated. Respiratory exchange rate (RER) was calculated as the ratio of CO2 produced (VCO2) to O2 consumed (VO2) using Equation (1): […]
(§4) Total energy expenditure (TEE) was calculated using VO2 and RER, according to Equation (2): […]
(§5) Fat oxidation (FO) and carbohydrate oxidation (CHO) were calculated using VO2 and VCO2 based on Equations (3) and (4), respectively: […]

DIO mouse model [3] = experiment: Chronic MEAI in HFD-induced obesity (DIO) model: body weight and body composition; assay type: in vivo, mice; settings: 28 days
Method: as §1

DIO mouse model [4] = experiment: Kidney and liver weight in DIO mice; assay type: in vivo; settings: 40 mg/kg/day, HFD-fed mice
Method: as §1

C57BL/6 mice [5] = experiment: Sucrose preference test; assay type: in vivo; settings: single dose 40 mg/kg
Method: Sucrose Preference Test. Thirteen-week-old male C57BL/6 mice maintained on a STD and housed individually were habituated to two water bottles in their home cage for 48 h prior to the test. Baseline intake was measured by weighing the bottles. On the test day (Day 1), 2 h before the onset of the dark phase, fresh water and a 1.5% sucrose solution were added to the bottles, and mice were subsequently treated orally with MEAI (40 mg/kg, N=8) or sterile water (N=8). The mice were allowed to drink from either bottle freely for 24 h, after which the bottles were weighed to measure consumption. The study was repeated for an additional day (Day 2), with the bottles switched in position (in the cage) to account for side preference. The sucrose and water intake over the two days were averaged, and the sucrose preference index was calculated as the average consumed sucrose solution divided by the average volume of total consumed liquid (average water plus average sucrose solution).

C57BL/6 mice [6] = experiment: Acute single-dose tolerability of MEAI; assay type: in vivo
Method: as §2

DIO mouse model [7] = experiment: Chronic MEAI in DIO model: food consumption and energy metabolism; assay type: in vivo, mice; settings: 40 mg/kg/day
Method: as §1, §3, §4, §5

[8] = single dose 40, 60, 100 mg/kg, 24-hour period
[9] = single dose, 60 and 100 mg doses
[10] = compared to HFD vehicle-treated group

Compound: COc1ccc2c(c1)CC(N)C2 (centres unmarked) [MEAI, 5-methoxy-2-aminoindan]
- HDL-to-LDL ratio (DIO mouse model [1]; HFD-fed mice): increased
- blood urea nitrogen (BUN) levels (DIO mouse model [1]; HFD-fed mice): slight improvements
- cholesterol levels (DIO mouse model [1]; HFD-fed mice, not statistically significant): tendency towards decreased
- circulating triglyceride levels (DIO mouse model [1]; any of the study groups): no significant alterations
- HDL levels (DIO mouse model [1]; compared to HFD vehicle group): without notable changes
- LDL levels (DIO mouse model [1]; compared to HFD vehicle group): significantly reduced
- ALP levels (DIO mouse model [1]; compared to HFD-vehicle group): significantly reduced
- ALT levels (DIO mouse model [1]; compared to HFD-vehicle group): did not significantly alter
- AST levels (DIO mouse model [1]; compared to HFD-vehicle group): did not significantly alter
- carbohydrate oxidation (CHO) rate (C57BL/6 mice [2]; [8]): corresponding elevations
- fat oxidation (FO) rate (C57BL/6 mice [2]; [8]): corresponding elevations
- total energy expenditure (TEE) (C57BL/6 mice [2]; [8]): significant dose-dependent increases
- rate of carbon dioxide emission (VCO2) (C57BL/6 mice [2]; [9]): higher rates
- rate of oxygen consumption (VO2) (C57BL/6 mice [2]; [9]): higher rates
- respiratory exchange rate (RER) (C57BL/6 mice [2]; single dose, light phase, 60 and 100 mg doses): increase
- water consumption (C57BL/6 mice [2]; single oral dose 40, 60 or 100 mg/kg): no notable changes
- feeding patterns (food intake) (C57BL/6 mice [2]; single oral dose 40, 60 or 100 mg/kg, dark and light phases, vs vehicle): did not reach statistical significance
- body weight of HFD-fed mice (DIO mouse model [3]; 40 mg/kg/day by gavage): significantly reduced
- decrease in total body weight compared to the obese vehicle-treated group (DIO mouse model [3]; 40 mg/kg/day by gavage, HFD-fed mice): ~15%
- adiposity associated with obesity (DIO mouse model [3]; 40 mg/kg/day, HFD-fed mice): reduced
- lean body mass, lean body mass ratio, net lean mass (DIO mouse model [3]; 40 mg/kg/day, HFD-fed mice): preserved
- overall fat mass (DIO mouse model [3]; 40 mg/kg/day, HFD-fed mice): reducing
- kidney-to-body weight ratio (DIO mouse model [4]): normalized
- liver weight (DIO mouse model [4]): reduced
- liver weight to body weight ratio (DIO mouse model [4]): normalized
- water intake levels (C57BL/6 mice [5]): without any accompanying decrease
- acute preference for sucrose solution (C57BL/6 mice [5]; 1.5% sucrose vs water, most evident in initial 24-hour period): significantly reduced
- preference for sucrose solution (C57BL/6 mice [5]; subsequent 24-hour period): slight reduction
- deaths after administration (C57BL/6 mice [6]; single oral dose 100 mg/kg, within a few hours, with stress of metabolic testing): two subjects in the 100 mg/kg group died
- drug tolerability, changes in behavior (C57BL/6 mice [6]; single oral dose 40 and 60 mg/kg, lean mice): well-tolerated, with no observable changes in behavior
- carbohydrate oxidation (CHO) (DIO mouse model [7]; HFD-fed mice): no effect of the drug itself
- respiratory exchange rate (RER) (DIO mouse model [7]; HFD-fed mice, in comparison to STD vehicle group): slightly decreased
- food intake per meal (DIO mouse model [7]; HFD-fed mice, both MEAI and vehicle HFD groups): reduction in food intake per meal
- carbon dioxide production (DIO mouse model [7]; [10]): slightly increased
- oxygen consumption (DIO mouse model [7]; [10]): slightly increased
- energy expenditure (DIO mouse model [7]; compared to both HFD and STD vehicle groups, light and dark phases): significant increase
- overall rate of fat oxidation (FO) (DIO mouse model [7]; compared to both HFD- and STD-vehicle groups): increase
- water intake (DIO mouse model [7]; obese mice): did not have any effect
